Results: paper PMC4721540, “Selective activators of protein phosphatase 5 target the auto-inhibitory mechanism” (Bioscience Reports, 2015)
Changes are numbered by the printed parent chain. Converted amounts (≈) assume the structure as drawn. “Also recorded” adds a separate entry of the source.

How the values were obtained:
PPH-5 [1] = molecular target: T1, PPH-5 (Caenorhabditis elegans, UniProt Q9NES8); test: pNPP phosphatase assay with nematode PPH-5; type: biochemical, C. elegans; settings: for kcat / fold activation: PPH-5 (C. elegans); for kcat: 60 mM pNPP, in presence of compound; for fold activation: based on kcat compared with PPH-5 basal activity; for activation of PPH-5 phosphatase activity: substances at 50 ng/ml, DMSO control
T1 construct: made in house
T1 sequence (Q9NES8 1-496): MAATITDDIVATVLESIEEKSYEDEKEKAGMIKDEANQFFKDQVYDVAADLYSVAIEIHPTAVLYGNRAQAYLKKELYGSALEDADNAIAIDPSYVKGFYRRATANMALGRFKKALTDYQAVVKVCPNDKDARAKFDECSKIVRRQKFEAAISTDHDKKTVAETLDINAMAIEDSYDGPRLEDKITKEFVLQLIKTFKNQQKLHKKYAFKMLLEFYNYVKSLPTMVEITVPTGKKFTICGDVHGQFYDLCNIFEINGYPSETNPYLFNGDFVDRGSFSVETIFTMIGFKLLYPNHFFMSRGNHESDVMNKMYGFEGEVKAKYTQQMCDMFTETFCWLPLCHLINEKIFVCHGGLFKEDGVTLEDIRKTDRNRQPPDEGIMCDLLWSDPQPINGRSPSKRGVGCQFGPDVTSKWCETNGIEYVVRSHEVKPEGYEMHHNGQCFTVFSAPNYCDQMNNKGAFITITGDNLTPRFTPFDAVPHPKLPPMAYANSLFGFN
Protocol: The compound library consisting of 10000 compounds (New Chemistry and Discovery Chemistry Collection, ChemDiv) was screened using a chromometric phosphatase assay with para-nitrophenyl phosphate (pNPP) as substrate. Phosphatase activity was determined by the conversion of pNPP to para-nitrophenole and absorption of the product at 410 nm (ε: 15100 cm^−1 M^−1). Assays were performed in 96-well plates in a PerkinElmer EnVision instrument with 50 nM of PPH-5. Reaction volume was 100 μl in a buffer of 40 mM HEPES, pH 7.5, 20 mM KCl, 5 mM MnCl2 and 1 mM DTT. The reaction was started by adding pNPP to a final concentration of 60 mM. The slope of the reaction was determined and deviations of >30% were considered potential hits leading to a collection of 76 initial compounds. […] These 76 compounds were maintained and rescreened individually in a Varian Cary 100 spectrophotometer (Agilent Technologies) in Hellma SUPRASIL precision quarz cells (10-mm path length) and 140 μl of reaction volumes. Finally, five compounds were obtained as reproducible activators and selected for further characterization.
(§1) Phosphatase assays for characterization of PP5 and PPH-5 properties were performed in 40 mM HEPES/KOH, 20 mM KCl, 5 mM MnCl2, 1 mM DTT, pH 7.5 and 60 mM pNPP at 20°C if not indicated otherwise. Phosphatase concentrations ranged from 50 to 500 nM in the assay. If indicated, the CeHsp90/DAF-21 peptide AEEDASRMEEVD was supplemented in the assay at a concentration of 60 μM. […] These concentrations were 70 μM for P5SA-1, 140 μM for P5SA-2, 50 μM for P5SA-3, 100 μM for P5SA-4 and 45 μM for P5SA-5.

PP5 = molecular target: T2, PP5 (Rattus norvegicus, UniProt P53042); test: pNPP phosphatase assay with rat PP5; type: biochemical, R. norvegicus; settings: for fold activation: PP5 (R. norvegicus)
T2 construct: His tag (inferred from pET28 vector and HisTrap purification); made in house; host or cells: E. coli BL21-CodonPlus (DE3)-RIL
T2 sequence (P53042 1-499): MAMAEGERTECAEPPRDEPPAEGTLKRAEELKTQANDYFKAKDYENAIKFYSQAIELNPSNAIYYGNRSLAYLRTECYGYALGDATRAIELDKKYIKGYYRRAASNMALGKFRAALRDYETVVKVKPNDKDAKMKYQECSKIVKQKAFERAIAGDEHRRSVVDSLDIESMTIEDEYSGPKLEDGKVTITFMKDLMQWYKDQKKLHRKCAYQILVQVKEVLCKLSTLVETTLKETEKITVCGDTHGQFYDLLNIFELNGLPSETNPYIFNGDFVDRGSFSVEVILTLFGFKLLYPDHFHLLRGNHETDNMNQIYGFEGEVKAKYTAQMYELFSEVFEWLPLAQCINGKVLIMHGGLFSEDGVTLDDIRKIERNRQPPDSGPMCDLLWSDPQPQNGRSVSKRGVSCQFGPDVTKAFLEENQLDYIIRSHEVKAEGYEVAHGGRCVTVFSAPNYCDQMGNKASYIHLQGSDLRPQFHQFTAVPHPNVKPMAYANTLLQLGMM
Protocol: as §1

physchem = type: physicochemical; settings: 20 °C, pH 7.5, aqueous buffer
Protocol: as §1

PPH-5 [2] = molecular target: T1, PPH-5; test: Relaxation-edited NMR binding to PPH-5; design: species or system C. elegans; settings: 10 μM PPH-5, phosphate buffer, 20°C, no substrate
Protocol: NMR experiments were performed on an 800 MHz spectrometer (Bruker) with cryoprobe. The measurements were done in ^2H2O with phosphate buffer (4 mM KH2PO4, 16 mM Na2HPO4, 120 mM NaCl, pH 7.4) and 1%–5% of d6-DMSO. P5SA-2 without protein was recorded in high sensitivity experiments with a high number of scans. The CPMG sequence with an additional Watergate to suppress residual water was used. The T2 filtering time was set to 400 ms to suppress signals from slowly tumbling molecules. Peak intensities were normalized by comparing residual DMSO peaks. PPH-5 was added as indicated.

PP5 428–430/455–457 = molecular target: T3, PP5 428–430/455–457 (Rattus norvegicus, UniProt P53042, E428A/K430A/M455A/N457A/V429A); test: pNPP phosphatase assay with PP5 428–430/455–457 mutant; type: biochemical; settings: compound at 100 μM
T3 construct: made in house; host or cells: E. coli BL21-CodonPlus (DE3)-RIL
T3 sequence (P53042 1-499 E428A/V429A/K430A/M455A/N457A): T2 sequence (P53042 1-499) with E428A, V429A, K430A, M455A, N457A
Protocol: (§2) Cloning and purification of PPH-5 (protein phosphatase homologue), CeHsp90/DAF-21 (abnormal DAuer formation), YFP-CeHsp90/DAF-21, BAG-1 (Bcl-2 associated athanogene-1), DNJ-13 (DNJ-13 homologue) and CeHsc70 (C. elegans heat shock cognate 70) were performed as described before. The human phosphatases PP1, PP2A and PP2B/PP3 were purified as described. The expression clones of rat PP5, PP5-ΔN165 (166–499) and PP5-ΔC8 (1–491) were generated by PCR and insertion of the DNA into the pET28 vector. Expression clones of PP5 428–430, which contains A^428-A^429-A^430 instead of E^428-V^429-K^430 and PP5 […], which contains A^428-A^429-A^430 instead of E^428-V^429-K^430 and A^455-G^456-A^457 instead of M^455-G^456-N^457, were also generated by PCR using primer sequences containing the modified codons. PCR-products were inserted into the pET28b expression plasmid (Merck) and verified by DNA sequencing (GATC Biotech). Proteins were expressed in BL21-CodonPlus (DE3)-RIL bacteria (Stratagene). Bacterial cultures were grown to a D600 of 0.8 and induced with 1 mM IPTG. Cells were disrupted using a cell disruption machine (IUL Instruments) and the lysate was loaded on to a HisTrap FF column (GE Healthcare). […] Protein purity was assessed by SDS/PAGE and the molecular mass was determined on an UltraFlex III MALDI-TOF/TOF mass spectrometer (Bruker). […]

PP5 428–430 = molecular target: T4, PP5 428–430 (Rattus norvegicus, UniProt P53042, E428A/K430A/V429A); test: pNPP phosphatase assay with PP5 428–430 mutant; type: biochemical; settings: compound at 100 μM
T4 construct: made in house; host or cells: E. coli BL21-CodonPlus (DE3)-RIL
T4 sequence (P53042 1-499 E428A/V429A/K430A): T2 sequence (P53042 1-499) with E428A, V429A, K430A
Protocol: as §2

[3] = molecular target: T5, PPH-5 - CeHsp90/DAF-21 complex (Caenorhabditis elegans, UniProt Q9NES8); test: Analytical ultracentrifugation of PPH-5/YFP-Hsp90 complex formation; type: binding, C. elegans; settings: peptide 60 μM
T5 construct: made in house
Protocol: Binding of Hsp90 to PPH-5 was analysed by analytical ultracentrifugation with fluorescence detection as described before. Experiments were performed in a Beckman ProteomeLab XL-A analytical ultracentrifuge (Beckman) equipped with an AU-FDS detector (Aviv Biomedical). Analytical ultracentrifugation (AUC) runs were performed in 40 mM HEPES/KOH, pH 7.5, 20 mM KCl, 1 mM DTT. The concentration of labelled YFP–Hsp90 was 300 nM and 3 μM of PPH-5 were added to form a complex with YFP–Hsp90. Where indicated 60 μM of the C-terminal Hsp90/DAF-21 peptide (AEEDASRMEEVD) was present in the sample. Centrifugation was performed at 20°C and 142000 g for 12 h. Scans were recorded every 90 s. Data analysis was performed using a dc/dt approach according to Stafford. The dc/dt plots were fit to Gaussian functions in order to obtain the s20,w values of the respective species as described previously. P5SAs were added as indicated.

With `FC(F)(F)c1c2c(nc3c(-c4ccc(Cl)cc4)cnn13)CCC2` [P5SA-1] the kcat (PPH-5 [1]) was 2.28 ± 0.28 s⁻¹, the fold activation (PPH-5 [1]) was 3.7 and the “activation of PPH-5 phosphatase activity” value (PPH-5 [1]) was “activate PPH-5”. For the same compound, the fold activation (PP5; compound at 100 μM) was 4.1 and the solubility (physchem) was 70 µM (≈ 23.6 µg/mL).
In the case of `COc1ccc(-c2nc(Cc3ccc(Cl)cc3)no2)cc1OC` [P5SA-2], the kcat (PPH-5 [1]) is reported as 1.99 ± 0.43 s⁻¹, the fold activation (PPH-5 [1]) is reported as 3.2 and the “activation of PPH-5 phosphatase activity” value (PPH-5 [1]) is reported as “activate PPH-5”. The fold activation (PP5; compound at 100 μM) was 3.9, the solubility (physchem) was 140 µM (≈ 46.3 µg/mL) and the “direct binding to PPH-5 by NMR” value (PPH-5 [2]) was “confirms binding of P5SA-2 to PPH-5”. The “stimulation of PP5 428–430/455–457” value (PP5 428–430/455–457) was “could not observe any stimulation” and the “stimulation of PP5 428–430 (single-loop mutant)” value (PP5 428–430) was “no activation could be achieved”.
In the case of `CN1CCc2c(sc(-n3cccc3)c2CNC(=O)NC23CC4CC(CC(C4)C2)C3)C1` [P5SA-3], the fold activation (PPH-5 [1]) is reported as 4.0, the “activation of PPH-5 phosphatase activity” value (PPH-5 [1]) is reported as “activate PPH-5” and the fold activation (PP5; compound at 30 μM (solubility limited)) is reported as 2.9. It also gave a solubility (physchem) of 50 µM (≈ 21.2 µg/mL).
In the case of `O=c1cc2nc(-c3ccc(F)cc3)nc(SCc3ccc(Br)cc3)n2[nH]1` [P5SA-4], the kcat (PPH-5 [1]) is reported as 4.85 ± 0.43 s⁻¹, the fold activation (PPH-5 [1]) is reported as 7.8 and the “activation of PPH-5 phosphatase activity” value (PPH-5 [1]) is reported as “activate PPH-5”. The fold activation (PP5; compound at 100 μM) was 3.0 and the solubility (physchem) was 100 µM (≈ 43.1 µg/mL).
For `CNC(=O)c1c(NC(=O)COCC(=O)Nc2sc3c(c2C(=O)NC)CCC3)sc2c1CCC2` [P5SA-5], the kcat (PPH-5 [1]) was 5.22 ± 0.67 s⁻¹, the fold activation (PPH-5 [1]) was 8.4 and the “influence of MEEVD-containing peptide on apparent affinity of activator” value (PPH-5 [1]; PPH-5, 60 μM MEEVD-containing peptide) was “only a minor influence on the apparent affinity”. For the same compound, the “activation of PPH-5 phosphatase activity” value (PPH-5 [1]) was “activate PPH-5”, the fold activation (PP5; compound at 100 μM) was 8.6 and the “stimulation of full-length rat PP5 at lower concentration” value (PP5; compound at 10 μM) was “effect at the lower concentration was detectable”. For the same compound, the solubility (physchem) was 45 µM (≈ 22.1 µg/mL), the “stimulation of PP5 428–430/455–457” value (PP5 428–430/455–457) was “could not detect stimulation; also recorded: did not stimulate the catalytic activity” and the “stimulation of PP5 428–430 (single-loop mutant)” value (PP5 428–430) was “did not stimulate the catalytic activity”.
With “AEEDASRMEEVD [MEEVD peptide, C-terminal Hsp90/DAF-21 peptide from Biomatik, used as control to disrupt the PPH-5–Hsp90 complex]” the “effect on complex formation between PPH-5 and YFP–Hsp90” value ([3]; 300 nM YFP–Hsp90, 3 μM PPH-5, P5SAs at maximal soluble concentration) was “complex formation is strongly reduced” and the “sedimentation coefficient s20,w of YFP–Hsp90 with PPH-5 in presence of substance” value ([3]; complex without substance 8.9 S, YFP–Hsp90 alone 6.8 S) was 7.6 S.
